In brackets after ≈: the same amount, converted by molar mass.
Assays:
[1] = system: T-REx™-GPR23-CRE-bla-CHO-K1 clone H6-E2; experiment: T-REx-GPR23-CRE-bla-CHO-K1 clone H6-E2 beta-lactamase reporter assay (induction); assay type: cell-based, Chinese hamster; conditions: Clone H6-E2; 1 μg/ml tetracycline, 16 hrs
Procedure: Six clones selected for further testing were expanded and retested for their inducible GPR23 specific activity. The clones were plated at 25,000 cells per well in a 96 well black walled clear bottom tissue culture assay plate. The plates were than placed at 37° C. 5% CO2 for 24 hrs to allow the cells to attach to the assay plate. The complete media was then removed from the plate and replaced with assay media (DMEM+0.1% BSA) containing 100 ng/ml pertussis toxin with or without 1 μg/ml tetracycline. The plates were placed at 37° C. 5% CO2 for 16 hrs to allow the induced expression of the GPR23 receptor. The cells were then loaded with LiveBLAzer™-FRET B/G substrate (2 μM) containing solution D for 2 hrs. To determine the optimal cell density for this assay the cells were plated at 2,500, 5,000, 10,000, and 20,000 cells per well in a 384 well black walled clear bottom tissue culture assay plate in complete media (DMEM+10% FBS). The plates were than placed at 37° C. 5% CO2 for 24 hrs to allow the cells to attach to the assay plate. The complete media was then removed from the plate and replaced with assay media (DMEM+0.1% BSA) containing 100 ng/ml pertussis toxin and a four fold dilution series of doxycycline starting at 1 μg/ml. The plates were placed at 37° C./5% CO2 for 16 hrs to allow the induced expression of the GPR23 receptor. The cells were then loaded with LiveBLAzer™-FRET B/G substrate (2 μM) containing solution D for 2 hrs. The cells were plated at 20,000 cells per well in a 384 well black walled clear bottom tissue culture assay plate in complete media (DMEM+10% FBS). The plates were then placed at 37° C. 5% CO2 for 6 hrs to allow the cells to attach to the assay plate. The complete media was then removed from the plate and replaced with assay media (DMEM+0.1% BSA) containing 100 ng/ml pertussis toxin, 0%, 0.25%, 0.5%, or 1.0% DMSO, and a three fold dilution series of doxycycline starting at 1 μg/ml. The plates were placed at 37° C./5% CO2 for 16 hrs to allow the induced expression of the GPR23 receptor. The cells were then loaded with LiveBLAzer™-FRET B/G substrate (2 μM) containing solution D for 2 hrs. The cells were plated at 20,000 cells per well in a 384 well black walled clear bottom tissue culture assay plate in complete media (DMEM+10% FBS). The plates were than placed at 37° C. 5% CO2 for 6 hrs to allow the cells to attach to the assay plate. The complete media was then removed from the plate and replaced with assay media (DMEM+0.1% BSA) containing 100 ng/ml pertussis toxin, 0.5% DMSO, and a three fold dilution series of doxycycline starting at 1 μg/ml. The plates were placed at 37° C. 5% CO2 for 16, 20 or 24 hrs to allow the induced expression of the GPR23 receptor. The cells were then loaded with LiveBLAzer™-FRET B/G substrate (2 μM) containing solution D for 2 hrs. Dose response of T-REx-GPR23-CRE-bla CHO-K1 cells to Doxycycline. T-REx-GPR23-CRE-bla CHO-K1 cells were plated in Growth Media (+) and allowed to attach to the tissue culture plate for 6 hrs. They were then induced for GPR23 expression overnight with doxycycline for 16 hrs in Assay Media. Cells were then loaded with LiveBLAzer™-FRET B/G Substrate (CCF4-AM) for 2 hours. Fluorescence emission values at 460 nm and 530 nm were obtained using a standard florescence plate reader and the Blue/Green Emission Ratios were plotted against the indicated concentrations of doxycycline (FIG. 40).

[2] = system: T-REx™ G2A CRE-bla Freestyle™ 293F cells; conditions: selected pool; 24 h tetracycline stimulation
Procedure: (§1) In order to control the levels of G2A expression, G2A was placed under the control of an inducible promoter using Invitrogen's T-REx™ system. To again assess feasibility, pcDNA 5 G2A/TO was transiently transfected into CRE-bla Freestyle™ and NFAT-bla Freestyle™ cell lines stably expressing the T-REx™ Tet repressor plasmid (pcDNA6/TR; e.g., catalog# V1025-20, Invitrogen, Carlsbad, Calif.). The transfected cells were then treated with 10 ug/mL, 1 ug/mL, or 100 ng/mL tetracycline for 24 h to induce G2A expression. […] Stable pools of cells were created in both the TR CRE-bla and TR NFAT-bla Freestyle™293F backgrounds.
(§2) Stimulation Kinetics—Selected pools of both CRE-bla and NFAT-bla T-REx™ G2A Freestyle™ cells were stimulated with tetracycline for 3, 4, 5, or 24 h and loaded for 2 h with 1 μM LiveBLAzer™-FRET B/G substrate.

[3] = system: T-REx™-G2A-NFAT-bla Freestyle™293F cells; experiment: T-REx G2A NFAT-bla Freestyle 293F beta-lactamase reporter assay (inducer dose response)
Procedure: as §1, §2
To improve the balance between tetracycline-induced signaling and cell death by testing shorter induction times, lower tetracycline concentrations and altered culture conditions were utilized to promote cell health. A 16 h tetracycline stimulation time was attempted on the pools from the first sort. Cells were plated at 10,000 cells/well 24 hours prior to assay in DMEM+10% dFBS and incubated at 37° C./5% CO2 until time of assay. The cells were stimulated for 16 hours (e.g., overnight) with a dilution series of the tetracycline. Following stimulation, the cells were loaded for 2 hours at room temperature in the dark with LiveBLAzer™-FRET B/G loading solution containing 1 μM substrate. This assay was done in Poly-D-Lysine coated plates.
Since G2A has no known agonists, doxycycline and tetracycline were compared as inducers of the assay. An antibiotic selected pool of cells were plated at 10,000 cells/well 24 hours prior to assay in DMEM+10% dFBS and incubated at 37° C./5% CO2 until time of assay. The cells were stimulated with a dilution series of each compound for 16 hours at 37° C./5% CO2 and loaded for 2 hours at room temperature in the dark with LiveBLAzer™-FRET B/G loading solution containing 1 μM substrate.
Cell Density/well—The influence of cell-plating density on assay performance was tested to find the density giving the best response and Z′ while maintaining the expected pharmacology. Cells were plated 24 hours prior to the assay at the densities indicated in FIG. 14 in DMEM+10% dFBS and incubated at 37° C./5% CO2 until the time of assay. The cells were stimulated for 16 hours at 37° C./5% CO2 with a dilution series of the doxycycline. After incubation, the cells were loaded for 2 hours at room temperature in the dark with LiveBLAzer™-FRET B/G loading solution containing 1 μM substrate.
DMSO Tolerance—Tests were performed related to assay performance as a function of DMSO concentration to determine the robustness of the assay to the range of DMSO challenge routinely encountered during high-throughput screening. Dose response curves were performed in the presence of 0%, 0.25%, 0.5%, or 1% DMSO. Cells were plated at 10,000 cells/well 24 hours prior to assay in DMEM+10% dFBS and incubated at 37° C./5% CO2 until time of assay. After incubation, DMSO was added to the wells to final concentrations of 0%, 0.25%, 0.5% and 1% DMSO. The cells were stimulated for 16 hours with a dilution series of the doxycycline. Following stimulation, the cells were loaded for 2 hours at room temperature in the dark with LiveBLAzer™-FRET B/G loading solution containing 1 μM substrate.
The substrate loading times were varied to find the time for an optimal assay performance. Cells were plated at 10,000 cells/well 24 hours prior to assay in DMEM+10% dFBS and incubated at 37° C./5% CO2 until time of assay. After incubation, DMSO was added to the wells to final concentration of 0.5%.

adenylyl cyclase [4] = experiment: FACS forskolin response of T-REx-CRE-bla-CHO-K1 pool; assay type: cell-based, Chinese hamster; conditions: T-REx-CRE-bla-CHO-K1 selected pool
From the text: (§3) The transfected and antibiotic selected T-REx™-CRE-bla-CHO-K1 and T-REx™-GPR23-CRE-bla-CHO-K1 clones were sorted for their responsiveness to forskolin. Forskolin activates adenylyl cyclase and results in increased intracellular cAMP concentrations which in turn lead to increased production of beta-lactamase from the CRE response element. Forskolin response of the T-REx™-CRE-bla-CHO-K1 and T-REx™-GPR23-CRE-bla-CHO-K1 pools were determine using FACS. […] In addition, there was an increase in the constitutively active cells in the human GPR23 containing cells as compared to the parental as indicated by the un-stimulated blue levels. The responsive clones were collected at one cell per well in 96 well tissue culture plates then expanded and tested for there responsiveness to LPA.

adenylyl cyclase [5] = experiment: FACS forskolin response of T-REx-GPR23-CRE-bla-CHO-K1 pools; assay type: cell-based, Chinese hamster
From the text: as §3

Row | SMILES | inducible response (induced versus uninduced) [1] | cell death [2] | EC50 ([3]; Homo sapiens, FreeStyle 293-F, antibiotic selected pool, 10,000 cells/well, 16 h stimulation, 2 h loading) | RR (Max) ([3]; antibiotic selected pool, 10,000 cells/well, 16 h stimulation) | cell death ([3]; selected pool, 24 h tetracycline stimulation) | increase in the percentage of cells in the "Blue" (responding) gate, stimulated verses un-stimulated (adenylyl cyclase [4]) | increase in the "Blue" gate, stimulated verses un-stimulated (adenylyl cyclase [5]; T-REx-GPR23-CRE-bla-CHO-K1 E1) | increase in the "Blue" gate, stimulated verses un-stimulated (adenylyl cyclase [5]; T-REx-GPR23-CRE-bla-CHO-K1 H6)
1 | CN(C)[C@@H]1C(O)=C(C(N)=O)C(=O)[C@@]2(O)C(O)=C3C(=O)c4c(O)cccc4[C@@](C)(O)[C@H]3C[C@@H]12 [Tetracycline] | about 9.2 fold | substantial cell death | 0.046 µg/mL (≈ 0.104 µM) | 3.1 | substantial cell death | – | – | –
2 | C=C[C@@]1(C)CC(=O)[C@]2(O)[C@@]3(C)[C@@H](O)CCC(C)(C)[C@@H]3[C@H](O)[C@H](OC(C)=O)[C@@]2(C)O1 [Forskolin] | – | – | – | – | – | ~10.7% | ~20% | ~21.1%
